≈ marks a conversion by molar mass, not a printed value. Like-named read-outs stand apart in the source and are kept apart here. Marks after values point to notes of the source that are not given here. Each block holds one compound with its values, some of them ahead of it.
What was measured:
P. vulgaris = test: Broth microdilution MIC, P. vulgaris; format: cell-based, Proteus vulgaris (ATCC 8427)
Experimental: (§1) The antibacterial effect of (AJ) EO was determined utilizing several strains of bacteria, which were obtained from the American Type Culture Collection (ATCC): Pseudomonas aeruginosa (ATCC 9027), Escherichia coli (ATCC 25922), Klebsiella pneumonia (ATCC 13883), Proteus vulgaris (ATCC 8427), and Staphylococcus aureus (ATCC 25923), and from a diagnostically confirmed methicillin-resistant Staphylococcus aureus (MRSA). The antifungal activity of (AJ) EO was evaluated against the growth of Candida albicans (ATCC 90028). The antimicrobial activity of the (AJ) EO used in this study was estimated using the broth microdilution method. The (AJ) EO was dissolved in DMSO to a concentration of 200 µg/mL. The produced solution was serially micro-diluted (2-fold) 10 times in sterile Mueller–Hinton broth (Thermo Fisher Scientific, Waltham, MA, USA). The dilution processes were performed under aseptic conditions in 96-well plates. In the micro-wells that were assigned to evaluate the antibacterial activity of (AJ) EO, micro-well number 11 contained plant-free Mueller–Hinton broth, which was used as a positive control for microbial growth. Micro-well number 12 contained plant-free and microbial-free Mueller–Hinton broth, which was used as a negative control for microbial growth. Micro-wells numbered 1–11 were inoculated aseptically with the test microbes. The (AJ) EO antimicrobial activity was determined in triplicate. All the inoculated plates were incubated at 35 °C. Regarding C. albicans, the same method was used but using RPMI media (Thermo Fisher Scientific, Waltham, MA, USA) instead of Mueller–Hinton broth. The incubation period lasted for about 18–24 h for those plates inoculated with the test bacterial strains and for about 48 h for those plates inoculated with C. albicans. […]

[1] = DPPH free radical scavenging assay; conditions: 30 min, 517 nm
Experimental: One hundred mg of (AJ) EO was dissolved in 100 mL of methanol to create the stock solution (1 mg/mL). The obtained solution was mixed with methanol to obtain different concentrations (2, 3, 5, 7, 10, 20, 30, 40, 50, 80, and 100 μg/mL). One milliliter of stock solution and 1 mL of methanol were mixed with 1 mL of DPPH (Sigma-Aldrich, Steinheim, Germany). Then, the solution was kept in the dark at room temperature for 30 min. However, by replacing the plant EO solution with methanol, the blank solution was prepared. Trolox (Sigma-Aldrich, St. Louis, MO, USA) was utilized as a positive control, and the absorbance for all obtained samples was measured by spectrophotometer (Shimadzu-UV-1800, Kyoto, Japan) at 517 nm. The DPPH inhibitory potentials were estimated utilizing the following formula:I (%) = [ABSblank − ABStest]/[ABSblank]) × 100%(2) where I (%) is the percentage of DPPH inhibitory potentials.

HeLa = test: MTS cytotoxicity assay, HeLa; format: cell-based; conditions: Homo sapiens, 24 h, read-out: IC50 against HeLa
Experimental: (§2) The liver (Hep3B), breast (MCF-7), Human cervical (HeLa), and Colon (CACO-2) tumor cell lines were cultivated separately in RPMI-1640 media (Sigma, Norwich, UK), which was treated with 1% L-glutamine (Sigma, London, UK), 1% penicillin/streptomycin antibiotics (BI, New Delhi, India), and 10% fetal bovine serum. Cancer cells were grown at 37 °C in a humidified atmosphere with 5% CO2. Cells were seeded at 2.6 × 10^4 cells/well in a 96-well plate. […] Cell viability was evaluated by the CellTilter 96® Aqueous One Solution Cell Proliferation (MTS) Assay according to the manufacturer’s directions (Promega Corporation, Madison, WI, USA). At the end of the treatment, 20 μL of MTS solution per 100 μL of media was added to each well, and the solutions in the well plates were incubated at 37 °C for 2 h. The absorbance was measured at 490 nm.

Caco-2 = test: MTS cytotoxicity assay, Caco-2; format: cell-based; conditions: Homo sapiens, 24 h, read-out: IC50 against Caco-2
Experimental: as §2

HepG2 = test: MTS cytotoxicity assay, HepG2; format: cell-based; conditions: Homo sapiens, 24 h, text names Hep3B, read-out: IC50 against HepG2
P. aeruginosa = test: Broth microdilution MIC, P. aeruginosa; format: cell-based, Pseudomonas aeruginosa (ATCC 9027); design: key: R: Resistant
Experimental: as §1, with “Micro-wells numbered 1–11 were inoculated aseptically with the test microbes.” left out, “triplicate.” for “triplicate. All the inoculated plates were incubated at 35 °C. Regarding C. albicans, the same method was used but using RPMI media (Thermo Fisher Scientific, Waltham, MA, USA) instead of Mueller–Hinton broth. The incubation period lasted for about 18–24 h for those plates inoculated with the test bacterial strains and for about 48 h for those plates inoculated with C. albicans.”

K. pneumoniae = test: Broth microdilution MIC, K. pneumoniae; format: cell-based, Klebsiella pneumonia (ATCC 13883); conditions: Klebsiella pneumoniae
Experimental: (§3) The antimicrobial activity of the (AJ) EO used in this study was estimated using the broth microdilution method. The (AJ) EO was dissolved in DMSO to a concentration of 200 µg/mL. The produced solution was serially micro-diluted (2-fold) 10 times in sterile Mueller–Hinton broth (Thermo Fisher Scientific, Waltham, MA, USA). The dilution processes were performed under aseptic conditions in 96-well plates. In the micro-wells that were assigned to evaluate the antibacterial activity of (AJ) EO, micro-well number 11 contained plant-free Mueller–Hinton broth, which was used as a positive control for microbial growth. Micro-well number 12 contained plant-free and microbial-free Mueller–Hinton broth, which was used as a negative control for microbial growth. Micro-wells numbered 1–11 were inoculated aseptically with the test microbes. The (AJ) EO antimicrobial activity was determined in triplicate. All the inoculated plates were incubated at 35 °C. Regarding C. albicans, the same method was used but using RPMI media (Thermo Fisher Scientific, Waltham, MA, USA) instead of Mueller–Hinton broth. The incubation period lasted for about 18–24 h for those plates inoculated with the test bacterial strains and for about 48 h for those plates inoculated with C. albicans.

MRSA = test: Broth microdilution MIC, MRSA; format: cell-based, methicillin-resistant Staphylococcus aureus; design: key: R: Resistant
Experimental: as §3

human recombinant COX-2 = target: T1, human recombinant COX-2 (Homo sapiens, UniProt P35354); test: COX inhibitor screening assay kit, COX-2; format: biochemical; conditions: calculated from two concentrations (350 and 50 µg/mL); read-out: IC50 COX-2
T1 construct: purchased Cayman Chemical 560131
T1 sequence (P35354 18-604): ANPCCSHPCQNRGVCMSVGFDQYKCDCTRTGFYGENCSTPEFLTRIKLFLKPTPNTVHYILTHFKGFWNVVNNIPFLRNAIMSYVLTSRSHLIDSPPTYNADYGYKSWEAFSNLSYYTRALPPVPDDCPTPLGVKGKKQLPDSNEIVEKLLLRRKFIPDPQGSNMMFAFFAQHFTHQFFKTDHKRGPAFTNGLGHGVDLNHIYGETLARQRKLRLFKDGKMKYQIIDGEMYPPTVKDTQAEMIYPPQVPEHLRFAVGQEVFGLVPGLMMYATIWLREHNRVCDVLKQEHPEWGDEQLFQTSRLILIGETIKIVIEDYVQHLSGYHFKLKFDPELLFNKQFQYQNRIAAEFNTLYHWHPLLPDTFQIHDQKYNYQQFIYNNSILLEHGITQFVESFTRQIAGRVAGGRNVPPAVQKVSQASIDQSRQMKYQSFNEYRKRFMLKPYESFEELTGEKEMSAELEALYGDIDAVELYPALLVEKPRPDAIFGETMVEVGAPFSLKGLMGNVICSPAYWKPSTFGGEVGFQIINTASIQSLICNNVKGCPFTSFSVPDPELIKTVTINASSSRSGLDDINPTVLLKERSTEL
Excerpt: The percentage inhibition of the two concentrations was used to calculate the IC50 [69, 70].

bovine COX-1 = target: T2, bovine COX-1 (Ovis aries, UniProt P05979); test: COX inhibitor screening assay kit, COX-1; format: biochemical; conditions: calculated from two concentrations (350 and 50 µg/mL); read-out: IC50 COX-1
T2 construct: purchased Cayman Chemical 560131
T2 sequence (P05979 25-600): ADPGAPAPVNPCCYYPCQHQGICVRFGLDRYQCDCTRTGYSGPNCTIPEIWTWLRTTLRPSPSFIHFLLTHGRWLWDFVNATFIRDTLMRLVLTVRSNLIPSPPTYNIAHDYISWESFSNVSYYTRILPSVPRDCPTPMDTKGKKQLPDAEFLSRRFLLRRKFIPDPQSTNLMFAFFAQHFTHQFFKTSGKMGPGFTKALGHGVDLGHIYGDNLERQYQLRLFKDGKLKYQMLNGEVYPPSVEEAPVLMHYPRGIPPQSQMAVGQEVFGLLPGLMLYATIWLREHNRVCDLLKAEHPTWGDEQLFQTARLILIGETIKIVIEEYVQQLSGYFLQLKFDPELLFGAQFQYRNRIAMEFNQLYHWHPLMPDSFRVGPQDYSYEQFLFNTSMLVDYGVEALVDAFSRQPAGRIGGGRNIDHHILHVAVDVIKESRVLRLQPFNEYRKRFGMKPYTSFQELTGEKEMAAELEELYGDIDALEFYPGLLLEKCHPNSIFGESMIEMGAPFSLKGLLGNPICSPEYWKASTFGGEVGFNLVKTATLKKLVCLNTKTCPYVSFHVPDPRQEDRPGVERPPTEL
Experimental: The ability of the (AJ) EO to prevent the conversion of arachidonic acid to PGH2 by bovine COX-1 and human recombinant COX-2 was assessed using a COX inhibitor screening assay kit (Item No: 560131, Cayman Chemical, Ann Arbor, MI, USA) according to manufacturer’s guidelines. The 50% inhibitory concentration (IC50) of COX-1/COX-2 activity of the tested samples was determined, with the assay run, in duplicate, with two concentrations (350 and 50 µg/mL). A standard curve of eight concentrations of prostaglandin, a non-specific binding sample, and a maximum binding sample was used, as instructed in the kit manual, to determine the inhibition of the sample plant, applying the generated multiple regression best-fit line. The percentage inhibition of the two concentrations was used to calculate the IC50 [69, 70].

[2] = Proteus vulgaris, read-out: MIC

MIC (P. vulgaris): 15 µg/mL (≈ 45.3 µM)
MIC (P. vulgaris; [2]): 15 µg/mL (≈ 45.3 µM)
SMILES: O=C(O)c1cn(C2CC2)c2cc(N3CCNCC3)c(F)cc2c1=O [Ciprofloxacin, ciprofloxacin]

IC50 against DPPH [1]: 1.58 ± 1.49 ^a µg/mL
SMILES: Cc1c(C)c2c(c(C)c1O)CCC(C)(C(=O)O)O2 (stereo not shown) [Trolox]

SMILES: COc1cccc2c1C(=O)c1c(O)c3c(c(O)c1C2=O)C[C@@](O)(C(=O)CO)C[C@@H]3O[C@H]1C[C@H](N)[C@H](O)[C@H](C)O1 [doxorubicin]
IC50 (HeLa): 0.84 ± 0.03 µg/mL (≈ 1.55 µM)
IC50 (Caco-2): 0.37 ± 0.08 µg/mL (≈ 0.681 µM)
IC50 (HepG2): 1.21 ± 0.05 µg/mL (≈ 2.23 µM)

MIC (P. aeruginosa): R
MIC (K. pneumoniae): 1 µg/mL (≈ 2.86 µM)
MIC (MRSA): R
MIC (MRSA; listed as ampicillin): does not have antibacterial activity
MIC (P. vulgaris; [2]): 18 µg/mL (≈ 51.5 µM)
SMILES: CC1(C)S[C@@H]2[C@H](NC(=O)[C@H](N)c3ccccc3)C(=O)N2[C@H]1C(=O)O [Ampicillin, ampicillin]

potency estimated from few doses (human recombinant COX-2): 40.2 ± 1.09 µg/mL (≈ 158 µM)
potency estimated from few doses (bovine COX-1): 7.89 ± 0.96 µg/mL (≈ 31 µM)
SMILES: CC(C(=O)O)c1cccc(C(=O)c2ccccc2)c1 (stereo not shown) [Ketoprofen]
